Results reported in PubChem BioAssay AID588780 (Sanford-Burnham Center for Chemical Genomics, 2011).
Activity calls are given as the source filed them.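 Rule for the calls: active = compounds whose fitted half-maximal concentration in the cell-protection dose series is at or below a set limit; inactive = the rest.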

What follows are compounds tested on H9c2 cardiomyocytes, 2-deoxyglucose stress, ATP luminescence, 2 h (assay: H9c2 cell survival under 2-deoxyglucose stress – uHTS hits, dose response (AID 588780)).

SMILES	IC50
CCNC(=O)/C(C#N)=C/c1c(N(Cc2ccccc2)Cc2ccccc2)nc2ccccn2c1=O	24.6 µM
Oc1c(Br)cc(Br)cc1C=NCc1ccc(F)cc1	> 79 µM (inactive)
CCOC(=O)c1cnc(SC)nc1Oc1cccc(NC(=O)c2cccc(Cl)c2Cl)c1	20.4 µM
O=C1c2ccccc2C(=O)N1CCCCSc1nc2ccccc2c(=O)n1CCCN1CCOCC1	58.6 µM (inactive)
COc1ccc(C(=O)Nc2cccc(/C(C)=N/NC(=O)c3ccc([N+](=O)[O-])c(C)c3)c2)cc1OC	> 79 µM (inactive)
CCn1c2ccccc2c2nc3cc(OC)c(OC)cc3nc21	> 79 µM (inactive)
O=C(NCC(=O)N(Cc1cccs1)C(C(=O)NC1CCCCC1)c1ccco1)c1ccco1 (stereo not given)	15.5 µM
CCCCC(=O)Nc1cc(C)c2c(=O)oc3ccccc3c2n1	> 79 µM (inactive)
CCCNC(=O)c1c(N)n(-c2cccc(OC)c2)c2nc3ccccc3nc12	> 79 µM (inactive)
O=C(/C=C/c1ccc(Cl)c([N+](=O)[O-])c1)Nc1cccnc1	> 79 µM (inactive)
Cn1c(=O)c2[nH]c(NN=Cc3cccc(Br)c3)nc2n(C)c1=O	> 79 µM (inactive)
COc1ccc(Nc2nnc(SCc3cc(=O)n4ccsc4n3)s2)cc1	14.1 µM
CC(C)C(=O)N1CCN(c2ccc(NC(=O)COc3ccccc3[N+](=O)[O-])cc2)CC1	> 79 µM (inactive)
Cn1c(=O)[nH]c(=O)c2c1nc(N(CCO)Cc1ccccc1)n2CCCc1ccccc1	> 79 µM (inactive)
O=c1c2ccccc2nc(/C=C/c2ccc(O)cc2)n1-c1ccc(O)cc1	> 79 µM (inactive)
O=C(Nc1ccccc1)c1nc[nH]c1C(=O)NCCCCCCNC(=O)c1[nH]cnc1C(=O)Nc1ccccc1	10.5 µM
O=C(CCCSc1nc2sc3c(c2c(=O)[nH]1)CCC3)NCCO	> 79 µM (inactive)
O=C(CCc1nc2ccccc2c(=O)[nH]1)N1CCN(S(=O)(=O)c2cccc(F)c2)CC1	> 79 µM (inactive)
O=c1cc(COc2ncnc3c(Cl)cc(Cl)cc23)nc2sccn12	> 79 µM (inactive)
O=C(COc1cccc(NC(=O)c2cccc([N+](=O)[O-])c2)c1)c1ccc(F)cc1	> 79 µM (inactive)
COc1ccc(-c2nn3c(-c4ccco4)nnc3s2)cc1OC	33.8 µM (inactive)
Cc1ccccc1NC(=O)COC(=O)CCc1nc2ccccc2c(=O)[nH]1	> 79 µM (inactive)
O=C(COc1cccc2c1CCNC2=O)NC1CCCCC1	> 79 µM (inactive)
COc1cccc(/C=N/NC(=O)c2oc3nc(-c4ccccc4)cc(-c4ccco4)c3c2N)c1	> 79 µM (inactive)

SMILES	IC50
COc1ccc2[nH]c(=O)c(CN(CC3CCCO3)S(=O)(=O)c3ccccc3F)cc2c1 (stereo not given)	15.9 µM
COc1cccc(C(=O)Nc2c(C(N)=O)oc3ccccc23)c1	> 79 µM (inactive)
O=C(COC(=O)c1cc(-c2cccnc2)nc2ccccc12)Nc1ccc(F)cc1F	23.2 µM
COc1cccc(CN(C)C(=O)C(Cc2ccccc2)NC(=O)c2ccccc2)c1OC (stereo not given)	20.8 µM
O=C(CN1CCCCC1)Nc1nc(-c2ccc(F)c(F)c2)cs1	70.7 µM (inactive)
COc1cccc(-c2nn3c(-c4ccco4)nnc3s2)c1	> 79 µM (inactive)
Cc1cccc(C(=O)NC(C(=O)Nc2nc(-c3ccccn3)cs2)C(C)C)c1 (stereo not given)	12.7 µM
COc1cc(NC(=O)c2cccc3c(-c4cnn(C)c4)coc23)cc(OC)c1OC	> 79 µM (inactive)
CC(=O)Nc1cc(C)nn1-c1nc2ccccc2s1	18 µM
O=C(CCc1nc2ccccc2c(=O)[nH]1)Nc1ccc(F)cc1	27.6 µM
Cc1ccc(CN(C(=O)CNC(=O)c2cccs2)C(C(=O)NCC2CCCO2)c2ccccc2)cc1 (stereo not given)	14.1 µM
O=C(CN1C(=O)CCC1=O)Nc1nc(-c2ccccn2)cs1	43.2 µM (inactive)
N/C(=N\NS(=O)(=O)c1ccccc1)c1ccccn1	> 79 µM (inactive)
CC(Oc1cccc(Br)c1)C(=O)NNC(=O)c1ccccn1 (stereo not given)	> 79 µM (inactive)
O=C(N/N=C/c1ccccn1)c1cc(-c2ccc(Cl)s2)[nH]n1	> 79 µM (inactive)
Cc1ccc(C(C(=O)NCc2ccccc2)N(Cc2ccco2)C(=O)c2snc(C(N)=O)c2N)o1 (stereo not given)	> 79 µM (inactive)
O=C(COc1ccc([N+](=O)[O-])cc1)Nc1nc(-c2ccccn2)cs1	> 79 µM (inactive)
Cc1ccc(OCCOC(=O)CCc2nc3ccccc3c(=O)[nH]2)cc1	> 79 µM (inactive)
CCN1C(=O)[C@H]2[C@H]3CN=C(SCc4ccc(C#N)cc4)N3[C@@](Cc3ccccc3)(C(=O)OC)[C@H]2C1=O	> 79 µM (inactive)
COc1cc(/C=N/NC(=O)c2ccccc2O)ccc1OCC(=O)Nc1ccccc1	> 79 µM (inactive)
O=C(NCc1ccco1)C(c1ccccc1)N(C(=O)Cc1cccs1)c1ccccc1F (stereo not given)	> 79 µM (inactive)
NC(=O)c1cccc(Nc2nc(C(N)CCc3ccccc3)cs2)n1 (stereo not given)	> 79 µM (inactive)
Cc1ccc(C(=O)Oc2ccc(Cl)c3cccnc23)cc1[N+](=O)[O-]	> 79 µM (inactive)
Cc1sc2nc(NCCO)[nH]c(=O)c2c1C	> 79 µM (inactive)

SMILES	IC50
O=C(CN(C(=O)Cn1nnc(-c2cccs2)n1)c1cnc2ccccc2c1)NCC1CCCO1 (stereo not given)	> 79 µM (inactive)
COc1ccc(-c2cc3nc(-c4ccccc4)cc(N4CCN(C(=O)c5ccoc5)CC4)n3n2)cc1	6.39 µM
Cc1cccc(OCCn2c(NC(=O)c3ccco3)nc3ccccc32)c1	17.8 µM
COc1ccccc1NC(=O)COc1ccc(/C=N/NC(=O)c2cccnc2)cc1	14.8 µM
CCOc1ccc(/C=C/C(=O)c2cc(Br)ccc(=O)c2O)cc1	> 79 µM (inactive)
Oc1c(Br)cc(Br)cc1C=Nc1cccc2ncccc12	27.3 µM
COc1ccc(-c2cc(NC=O)c3ncc(-c4cccc(C(C)=O)c4)n3c2)cc1	> 79 µM (inactive)
COc1ccc(C=CC(=O)c2ccc3cc(OC)c(OC)cc3c2)cc1OC	> 79 µM (inactive)
COc1ccc(-n2c(/C=C/c3ccc(O)cc3)nc3ccccc3c2=O)cc1	15.8 µM
CCC(c1nnnn1Cc1ccccc1)N1CCC(n2c(=O)[nH]c3ccccc32)CC1 (stereo not given)	> 79 µM (inactive)
O=C(NCc1n[nH]c(=O)c2ccccc12)C1CC(=O)N(c2ccccc2)C1 (stereo not given)	43 µM (inactive)
CNC(=O)c1ccc(-c2sc3nc(N4CCOCC4)c4c(c3c2N)CCCC4)o1	> 79 µM (inactive)
O=C1NC(=O)c2c(Br)c(Br)c(Br)c(Br)c21	> 79 µM (inactive)
Cc1cc(-c2nn3c(-c4ccccc4)nnc3s2)c2ccccc2n1	> 79 µM (inactive)
Clc1ccccc1-c1nc(N/N=C/c2cccnc2)c2ccccc2n1	8.37 µM
Cc1[nH]c(-c2ccccn2)nc(=S)c1Cl	> 79 µM (inactive)
O=C(CCc1nc2ccccc2c(=O)[nH]1)NNC(=O)c1ccc(F)cc1	> 79 µM (inactive)
COc1ccc(-c2cc(C(=O)NC(C)c3ccccn3)c3ccccc3n2)cc1OC (stereo not given)	13 µM
Cc1cc(C(=O)N/N=C/c2cc(Br)ccc2OC(=O)c2ccccc2Cl)n[nH]1	> 79 µM (inactive)
CC(=O)N1CCN(c2ccccc2NC(=O)c2ccc(-c3cccc([N+](=O)[O-])c3)o2)CC1	5.88 µM
COc1cccc(Nc2nc(-c3sc(NC(=O)c4ccco4)nc3C)cs2)c1	> 79 µM (inactive)
CC(=O)c1cccc(-c2cnc3c(NC=O)cc(-c4cccc(C(=O)N(C)C)c4)cn23)c1	19.5 µM
